Data set [1] has as its target T1, Tyrosine-protein kinase BTK (Homo sapiens, UniProt Q06187). The data set can be described thus: Binding affinity to biotinylated and unactivated BTK (unknown origin) at 0.001 to 0.1 uM incubated for 1 hr by TR-FRET assay.
Data set [2] has as its target T1, Tyrosine-protein kinase BTK. The experiment in a line: Binding affinity to biotinylated and unactivated BTK (unknown origin) incubated for 1 hr by TR-FRET assay. Background: TR-FRET usually uses a lanthanide donor and a delayed reading to cut background.
Data set [3] shares this target. The experiment in a line: Inhibition of biotinylated and unactivated BTK (unknown origin) using FITC-labeled Srctide peptide substrate and ATP.
The target is the same in data set [4]. The experiment in a line: Inhibition of biotinylated and activated BTK (unknown origin) using FITC-labeled Srctide peptide substrate and ATP.
For data set [5] the target is unchanged. The data set can be described thus: Binding affinity to biotinylated and activated BTK (unknown origin) at 0.001 to 0.1 uM incubated for 1 hr by TR-FRET assay.
For data set [6] the target is unchanged. The experiment in a line: Inhibition of biotinylated and activated BTK (unknown origin) up to 100 uM using FITC-labeled Srctide peptide substrate and ATP.
The target is the same in data set [7]. The experiment in a line: Inhibition of unactivated BTK (unknown origin) using 30 uM probe 5-(4-(4-(6-(3-(4-tert-butylbenzamido)-2-methylphenyl)-4-methyl-3-oxo-3,4-dihydropyrazin-2-ylamino)benzoyl)piperazine-1-carbothioamido)-2-(6-hydroxy-3-oxo-3H-xanthen-9-yl)benzoic acid.
Data set [8] is described as follows: Chemical stability in solution. The format is physicochemical.

Active and inactive are the calls of the source. The rule behind the calls is not given here.

T1 sequence (Q06187 whole entry): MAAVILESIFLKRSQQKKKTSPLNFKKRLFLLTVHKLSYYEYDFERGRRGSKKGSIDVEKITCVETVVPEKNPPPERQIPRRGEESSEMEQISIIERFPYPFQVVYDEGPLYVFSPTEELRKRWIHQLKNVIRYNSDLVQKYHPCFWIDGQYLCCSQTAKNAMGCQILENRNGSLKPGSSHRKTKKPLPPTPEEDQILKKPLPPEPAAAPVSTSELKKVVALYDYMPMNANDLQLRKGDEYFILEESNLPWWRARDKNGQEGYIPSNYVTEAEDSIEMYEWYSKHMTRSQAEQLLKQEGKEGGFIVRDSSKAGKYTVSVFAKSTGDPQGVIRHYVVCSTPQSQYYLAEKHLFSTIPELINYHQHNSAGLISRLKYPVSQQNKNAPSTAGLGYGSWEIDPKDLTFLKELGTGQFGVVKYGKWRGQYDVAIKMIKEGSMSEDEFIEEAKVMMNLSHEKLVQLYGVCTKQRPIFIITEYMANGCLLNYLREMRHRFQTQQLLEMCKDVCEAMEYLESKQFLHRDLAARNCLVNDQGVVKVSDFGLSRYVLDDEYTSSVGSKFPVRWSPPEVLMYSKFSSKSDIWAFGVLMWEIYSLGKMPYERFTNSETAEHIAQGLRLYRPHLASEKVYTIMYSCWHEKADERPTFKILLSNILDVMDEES

As to `Cc1c(NC(=O)c2ccc(C(C)(C)C)cc2)cccc1-c1cn(C)c(=O)c(Nc2ccc(C(=O)N3CCN(C(=S)Nc4ccc(-c5c6ccc(=O)cc-6oc6cc(O)ccc56)c(C(=O)O)c4)CC3)cc2)n1`, the outcome in data set [1] was Active. Further, in data set [2], the Kd (commonly a measure of binding affinity in units of concentration) came to 2.5 nM. The IC50 – broadly, the point on the concentration scale where inhibition reaches its midpoint – in data set [3] was found to be 0.61 nM; in data set [4] it was 69 nM. In addition, in data set [5], the outcome was inactive.
As to `CC(=O)Nc1cccc(NC(=O)c2ccc(CN3CCN(C)CC3)cc2)c1`, the inhibition (commonly the share of the control response that was lost under treatment) in data set [6] was “inactive”. Further, in data set [3], the IC50 turned out to be 4700 nM. Further, the inhibition in data set [7] was over 10%.
For `Cc1c(NC(=O)c2ccc(C(C)(C)C)cc2)cccc1-c1cn(C)c(=O)c(Nc2ccc(C(=O)N3CCOC(CNC(=S)Nc4ccc(-c5c6ccc(=O)cc-6oc6cc(O)ccc56)c(C(=O)O)c4)C3)cc2)n1` (stereo unspecified), the result in data set [1] was Active. In data set [2], binding was put at a Kd of 3.8 nM. Also, the IC50 in data set [3] was 4.8 nM; in data set [4] it was 350 nM. Besides, the outcome in data set [5] was inactive.
Turning to `Cc1c(NC(=O)c2ccc(C(C)(C)C)cc2)cccc1-c1cn(C)c(=O)c(Nc2ccc(C(=O)NCCNC(=S)Nc3ccc(-c4c5ccc(=O)cc-5oc5cc(O)ccc45)c(C(=O)O)c3)cc2)n1`, in data set [1], the result was Active. In data set [2], the Kd was determined as 6.1 nM. Further, the Stability entry in data set [8] is on record as “Unstable”. Besides, the figures for the IC50 in data set [3] and in data set [4] were 5.6 nM and 290 nM, respectively. In data set [5], the result was inactive.
As to `Cc1c(NC(=O)c2ccc(C(C)(C)C)cc2)cccc1-c1cn(C)c(=O)c(Nc2ccc(C(=O)NCCOCCOCCNC(=S)Nc3ccc(-c4c5ccc(=O)cc-5oc5cc(O)ccc45)c(C(=O)O)c3)cc2)n1`, the result in data set [1] was Active. Further, in data set [2], binding was put at a Kd of 8.8 nM. Further, the Stability result in data set [8] is listed as “Unstable”. The IC50 was determined as 7.8 nM in data set [3] and 305 nM in data set [4]. Moreover, in data set [5], the outcome was inactive.
As for `Cc1c(NC(=O)c2ccc(C(C)(C)C)cc2)cccc1-c1cn(C)c(=O)c(Nc2ccc(C(=O)NCCCNC(=S)Nc3ccc(-c4c5ccc(=O)cc-5oc5cc(O)ccc45)c(C(=O)O)c3)cc2)n1`, the result in data set [1] was Active. This compound gave a Kd in data set [2] of 6.2 nM. In addition, the IC50 in data set [3] turned out to be 3.2 nM; in data set [4], 208 nM. Moreover, the result in data set [5] was inactive.
Consider `Cc1c(NC(=O)c2ccc(C(C)(C)C)cc2)cccc1-c1cn(C)c(=O)c(Nc2ccc(C(=O)NCCCCNC(=S)Nc3ccc(-c4c5ccc(=O)cc-5oc5cc(O)ccc45)c(C(=O)O)c3)cc2)n1`, for which the result in data set [1] was Active. The compound further showed a Kd in data set [2] of 5.5 nM. Besides, in data set [8], the Stability entry is “Unstable”. Also, the IC50 in data set [3] is 4.3 nM; in data set [4] it was 189 nM. The outcome in data set [5] was inactive.
